According to article PMC3169562, “The Hedgehog Receptor Patched Is Involved in Cholesterol Transport” (PLoS ONE, 2011):

What was measured:
human Patched (hPtc) [1] = target: T1, human Patched (hPtc) (Homo sapiens, UniProt Q13635); test: fluorescent sterol efflux from yeast over-expressing hPtc versus Myodulin or hSmo controls; type: cell-based; design: gene PTCH1; hPtc-MAP over-expressed in S. cerevisiae
T1 sequence (Q13635 1-1447): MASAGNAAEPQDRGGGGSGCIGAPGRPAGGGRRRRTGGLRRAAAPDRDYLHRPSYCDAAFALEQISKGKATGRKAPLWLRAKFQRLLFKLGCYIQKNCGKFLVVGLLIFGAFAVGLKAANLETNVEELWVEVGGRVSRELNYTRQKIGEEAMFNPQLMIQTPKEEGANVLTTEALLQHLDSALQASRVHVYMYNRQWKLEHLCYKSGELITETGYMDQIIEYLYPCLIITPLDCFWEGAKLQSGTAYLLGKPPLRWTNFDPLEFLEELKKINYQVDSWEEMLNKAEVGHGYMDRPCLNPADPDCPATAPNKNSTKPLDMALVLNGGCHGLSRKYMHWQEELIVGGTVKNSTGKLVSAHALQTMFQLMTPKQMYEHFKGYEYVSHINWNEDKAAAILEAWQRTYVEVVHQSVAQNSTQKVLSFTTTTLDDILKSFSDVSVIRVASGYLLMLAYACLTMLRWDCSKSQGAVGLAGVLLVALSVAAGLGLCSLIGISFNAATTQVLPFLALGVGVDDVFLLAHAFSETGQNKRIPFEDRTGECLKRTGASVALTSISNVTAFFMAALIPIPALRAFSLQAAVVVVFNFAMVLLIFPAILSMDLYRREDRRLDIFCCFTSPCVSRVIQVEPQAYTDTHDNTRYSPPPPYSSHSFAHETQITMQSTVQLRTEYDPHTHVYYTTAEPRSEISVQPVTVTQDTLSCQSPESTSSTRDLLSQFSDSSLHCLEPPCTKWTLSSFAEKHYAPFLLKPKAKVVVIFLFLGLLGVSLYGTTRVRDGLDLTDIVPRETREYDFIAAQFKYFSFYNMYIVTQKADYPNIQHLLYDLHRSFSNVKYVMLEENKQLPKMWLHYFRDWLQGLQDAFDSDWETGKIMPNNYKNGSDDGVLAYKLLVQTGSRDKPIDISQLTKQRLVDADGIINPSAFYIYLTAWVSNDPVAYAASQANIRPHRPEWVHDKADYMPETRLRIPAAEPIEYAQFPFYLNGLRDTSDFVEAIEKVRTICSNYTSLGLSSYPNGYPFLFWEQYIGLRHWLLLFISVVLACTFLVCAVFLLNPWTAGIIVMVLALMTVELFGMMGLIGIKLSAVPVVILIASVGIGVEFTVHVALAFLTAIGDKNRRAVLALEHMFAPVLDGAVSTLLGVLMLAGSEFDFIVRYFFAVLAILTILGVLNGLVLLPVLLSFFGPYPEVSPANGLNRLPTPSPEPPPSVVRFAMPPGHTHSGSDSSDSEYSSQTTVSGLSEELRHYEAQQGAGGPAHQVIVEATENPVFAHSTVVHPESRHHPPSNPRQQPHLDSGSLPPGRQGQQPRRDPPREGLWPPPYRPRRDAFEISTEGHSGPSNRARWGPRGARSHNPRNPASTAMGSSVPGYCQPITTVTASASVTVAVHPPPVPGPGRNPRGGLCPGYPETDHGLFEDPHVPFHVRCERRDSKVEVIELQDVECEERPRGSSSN

human Patched (hPtc) [2] = target: T1, human Patched (hPtc); test: SPR (Biacore): purified hPtc injected over thiocholesterol covalently coupled to a CM5 chip; Myodulin as negative control; type: binding; design: gene PTCH1

Row | SMILES | % increase of efflux (human Patched (hPtc) [1]) | SPR (Biacore): purified hPtc injected over thiocholesterol covalently coupled to (human Patched (hPtc) [2])
1 | CC1=CC(C)=[N+]2C1=C(CC[C@@H](C)[C@H]1CC[C@H]3[C@@H]4CC=C5C[C@@H](O)CC[C@]5(C)[C@H]4CC[C@]13C)c1c(C)cc(C)n1[B-]2(F)F [BODIPY-cholesterol] | ~ 88 % increase of efflux | –
2 | CC(C)CCC[C@@H](C)[C@H]1CC[C@H]2[C@@H]3CC=C4C[C@@H](O)CC[C@]4(C)[C@H]3CC[C@]12C [cholesterol] | – | showed a clear binding of hPtc to cholesterol coupled on the fc in comparison with Myo
